Assay results reported in paper PMC10667104, “Biosynthesis of natural and halogenated plant monoterpene indole alkaloids in yeast” (Nature Chemical Biology, 2023).

Target: T1, ADRA2A (Homo sapiens, UniProt P08913)
T1 sequence (P08913 1-465): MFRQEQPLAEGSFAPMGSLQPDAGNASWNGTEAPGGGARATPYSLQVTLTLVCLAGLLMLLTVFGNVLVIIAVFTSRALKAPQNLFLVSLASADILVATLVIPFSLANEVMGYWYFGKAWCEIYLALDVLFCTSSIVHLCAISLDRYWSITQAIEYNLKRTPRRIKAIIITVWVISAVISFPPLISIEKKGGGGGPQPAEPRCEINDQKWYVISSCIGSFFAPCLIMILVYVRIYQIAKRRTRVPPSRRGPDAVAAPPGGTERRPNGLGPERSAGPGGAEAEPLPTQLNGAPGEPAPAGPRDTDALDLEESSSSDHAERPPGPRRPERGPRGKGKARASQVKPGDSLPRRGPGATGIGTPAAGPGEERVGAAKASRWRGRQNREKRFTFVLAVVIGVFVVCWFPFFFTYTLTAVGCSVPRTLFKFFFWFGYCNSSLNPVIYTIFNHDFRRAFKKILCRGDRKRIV
Test: cell-based

Q: `COC(=O)C1=CO[C@@H](C)[C@@H]2Cn3ccc4c5ccccc5nc-4c3C[C@H]12` [1a, alstonine] was tested. Which IC50 did it give?
A: Its IC50 is 59 µM.
